Test: Water content and water uptake of crystal modification 1 at different relative humidity
Format: physicochemical

SMILES: CCCCC1(CCCC)CN(c2ccccc2)c2cc(SC)c(OCC(=O)N[C@@H](C(=O)N[C@@H](CC)C(=O)O)c3ccc(O)cc3)cc2S(=O)(=O)N1 [crystal modification 1]
- water content of crystal (about 30% relative humidity, based on total crystal weight): about 3.5 % (w/w)
- hygroscopicity (between about 30 and about 70% RH): relatively low hygroscopicity
- additional water taken up (humidity increased up to 95% RH, fully reversible): 1.5 % (w/w)

Reference: patent US12447156B2, “Treating progressive familial intrahepatic cholestasis (PFIC) with IBAT inhibitors” (ALBIREO AB, priority 2020, dated 2025)
